Read-outs that look alike come from different tables or passages of the source.
Test system: HCV 1b-377-neo replicon cells
Experiment: HCV replicon assay, HCV 1b-377-neo replicon cells (1b FRET)
Format: cell-based, Hepatitis C virus genotype 1b
Details: HCV 1b-377-neo replicon cells, HCV 1b genotype; for EC50: read-out: EC50 range against HCV 1b (Table 2, Range)
Method in brief: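 Compounds were tested in genotype 1b subgenomic replicon cells carrying a neomycin marker, alongside a matched replicon line with an NS5A Y2065H substitution that confers resistance to a reference NS5A inhibitor.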

Row | Compound | EC50 (Hepatitis C virus) [nM] | further results
1 | Cc1[nH]c([C@@H]2CCCN2C(=O)[C@@H](c2ccccc2)N(C)C)nc1-c1ccc(-c2ccc(-c3cnc([C@@H]4CCCN4C(=O)[C@@H](c4ccccc4)N(C)C)[nH]3)cc2)cc1 [Example E5, (1R)-2-((2S)-2-(4-(4′-(2-((2S)-1-((2R)-2-(dimethylamino)-2-phenylacetyl)-2-pyrrolidinyl)-1H-imidazol-4-yl)-4-biphenylyl)-5-methyl-1H-imidazol-2-yl)-1-pyrrolidinyl)-N,N-dimethyl-2-oxo-1-phenylethanamine] | 0.001 to 0.999 | 
2 | COC(=O)N[C@@H](C(=O)N1CCC[C@H]1c1ncc(-c2ccc(-c3ccc(-c4cnc([C@@H]5CCCN5C(=O)[C@@H]5CC(F)(F)CN5)[nH]4)cc3)cc2)[nH]1)c1ccccc1 [Example 81, methyl ((1R)-2-((2S)-2-(5-(4′(2-((2S)-1-(4,4-difluoro-L-prolyl)-2-pyrrolidinyl)-1H-imidazol-5-yl)-4-biphenylyl)-1H-imidazol-2-yl)-1-pyrrolidinyl)-2-oxo-1-phenylethyl)carbamate] | 0.001 to 0.999 | 
3 | CN(C)[C@H](C(=O)N1CCC[C@H]1c1ncc(-c2ccc(-c3ccc(-c4cnc([C@@H]5CCCN5C(=O)[C@H](c5ccccc5)N(C)C)[nH]4)cc3)cc2)[nH]1)c1ccccc1 [Example 5, (1S,1′S)-2,2′-(4,4′-biphenyldiylbis(1H-imidazole-5,2-diyl(2S)-2,1-pyrrolidinediyl))bis(N,N-dimethyl-2-oxo-1-phenylethanamine)] | 1 to 99 | 
4 | COC(=O)N[C@@H](C(=O)N1CCC[C@H]1c1ncc(-c2ccc(-c3ccc(-c4cnc([C@@H]5CCCN5C(=O)[C@H]5CC[C@@H](NC(=O)OC(C)(C)C)CC5)[nH]4)cc3)cc2)[nH]1)c1ccccc1 [Example 84-35, methyl ((1R)-2-((2S)-2-(5-(4′-(2-((2S)-1-((cis-4-((tert-butoxycarbonyl)amino)cyclohexyl)carbonyl)-2-pyrrolidinyl)-1H-imidazol-5-yl)-4-biphenylyl)-1H-imidazol-2-yl)-1-pyrrolidinyl)-2-oxo-1-phenylethyl)carbamate] | 0.001 to 0.999 | 
5 | COC(=O)N[C@@H](C(=O)N1CCC[C@H]1c1ncc(-c2ccc(-c3ccc(-c4cnc([C@@H]5CCCN5C(=O)[C@H](NC(=O)OC)c5ccccc5Cl)[nH]4)cc3)cc2)[nH]1)c1ccccc1 [Example 107-41, methyl ((1R)-2-((2S)-2-(5-(4′-(2-((2S)-1-((2R)-2-(2-chlorophenyl)-2-((methoxy-carbonyl)amino)acetyl)-2-pyrrolidinyl)-1H-imidazol-5-yl)-4-biphenylyl)-1H-imidazol-2-yl)-1-pyrrolidinyl)-2-oxo-1-phenylethyl) carbamate] | 0.001 to 0.999 | 
6 | COC(=O)N[C@@H](C(=O)N1CCC[C@H]1c1ncc(-c2ccc(-c3ccc(-c4cnc([C@@H]5CCCN5C(=O)C5CCN(C)CC5)[nH]4)cc3)cc2)[nH]1)c1ccccc1 [Example 44, methyl ((1R)-2-((2S)-2-(5-(4′-(2-((2S)-1-((1-methyl-4-piperidinyl)carbonyl)-2-pyrrolidinyl)-1H-imidazol-5-yl)-4-biphenylyl)-1H-imidazol-2-yl)-1-pyrrolidinyl)-2-oxo-1-phenylethyl)carbamate] | 0.001 to 0.999 | 
7 | CCN(CC)[C@@H](C(=O)N1CCC[C@H]1c1ncc(-c2ccc(-c3ccc(-c4cnc([C@@H]5CCCN5C(=O)C(C)(C)NC(=O)OC)[nH]4)cc3)cc2)[nH]1)c1ccccc1 [Example M34, methyl (2-((2S)-2-(5-(4′-(2-((2S)-1-((2R)-2-(diethylamino)-2-phenylacetyl)-2-pyrrolidinyl)-1H-imidazol-5-yl)-4-biphenylyl)-1H-imidazol-2-yl)-1-pyrrolidinyl)-1,1-dimethyl-2-oxoethyl)carbamate] | 1 to 99 | 
8 | O=C(CCN1CCCCC1)N1CCC[C@H]1c1ncc(-c2ccc(-c3ccc(-c4cnc([C@@H]5CCCN5C(=O)[C@@H](c5ccccc5)N5CCCCC5)[nH]4)cc3)cc2)[nH]1 [Example 107-7, 1-(3-oxo-3-((2S)-2-(5-(4′-(2-((2S)-1-((2R)-2-phenyl-2-(1-piperidinyl)acetyl)-2-pyrrolidinyl)-1H-imidazol-5-yl)-4-biphenylyl)-1H-imidazol-2-yl)-1-pyrrolidinyl)propyl)piperidine] | 0.001 to 0.999 | 
9 | CCN(CC)[C@@H](C(=O)N1CCC[C@H]1c1ncc(-c2ccc(-c3ccc(-c4cnc([C@@H]5CCCN5C(=O)[C@H](Cn5cccn5)NC(=O)OC)[nH]4)cc3)cc2)[nH]1)c1ccccc1 [cj-36, methyl ((1S)-2-((2S)-2-(5-(4′-(2-((2S)-1-((2R)-2-(diethylamino)-2-phenylacetyl)-2-pyrrolidinyl)-1H-imidazol-5-yl)-4-biphenylyl)-1H-imidazol-2-yl)-1-pyrrolidinyl)-2-oxo-1-(1H-pyrazol-1-ylmethyl)ethyl)carbamate] | 0.001 to 0.999 | 
10 | COC(=O)N[C@@H](CC(C)C)C(=O)N1CCC[C@H]1c1ncc(-c2ccc(-c3ccc(-c4cnc([C@@H]5CCCN5C(=O)[C@H](CC(C)C)NC(=O)OC)[nH]4)cc3)cc2)[nH]1 [OL-6, methyl ((1S)-1-(((2S)-2-(4-(4′-(2-((2S)-1-((2S)-2-((methoxycarbonyl)amino)-4-methylpentanoyl)-2-pyrrolidinyl)-1H-imidazol-4-yl)-4-biphenylyl)-1H-imidazol-2-yl)-1-pyrrolidinyl)carbonyl)-3-methylbutyl)carbamate] | 0.001 to 0.999 | 
11 | COC[C@H](NC(=O)OC)C(=O)N1CCC[C@H]1c1ncc(-c2ccc(-c3ccc(-c4cnc([C@@H]5CCCN5C(=O)[C@@H](NC(=O)OC)C(C)C)[nH]4)cc3)cc2)[nH]1 [Example M71, methyl ((1S)-2-((2S)-2-(5-(4′-(2-((2S)-1-(N-(methoxycarbonyl)-L-valyl)-2-pyrrolidinyl)-1H-imidazol-5-yl)-4-biphenylyl)-1H-imidazol-2-yl)-1-pyrrolidinyl)-1-(methoxymethyl)-2-oxoethyl)carbamate] | 1 to 99 | 
12 | COC(=O)N[C@@H](C)C(=O)N1CCC[C@H]1c1ncc(-c2ccc(-c3ccc(-c4cnc([C@@H]5CCCN5C(=O)[C@H]5CCCC[C@H]5NC(=O)OC)[nH]4)cc3)cc2)[nH]1 [cj-96, methyl ((1R,2S)-2-(((2S)-2-(5-(4′-(2-((2S)-1-(N-(methoxycarbonyl)-L-alanyl)-2-pyrrolidinyl)-1H-imidazol-5-yl)-4-biphenylyl)-1H-imidazol-2-yl)-1-pyrrolidinyl)carbonyl)cyclohexyl)carbamate] | 0.001 to 0.999 | 
13 | COC(=O)N[C@@H](C(=O)N1CCC[C@H]1c1ncc(-c2ccc(-c3ccc(-c4cnc([C@@H]5CCCN5C(=O)[C@H]5CCN(Cc6ccccc6)C5)[nH]4)cc3)cc2)[nH]1)c1ccccc1 [Example 84-28] |  | EC50: 0.001 to 0.999 nM
14 | COC(=O)N[C@@H](Cc1cn(C)cn1)C(=O)N1CCC[C@H]1c1ncc(-c2ccc(-c3ccc(-c4cnc([C@@H]5CCCN5C(=O)[C@@H](NC(=O)OC)C(C)C)[nH]4)cc3)cc2)[nH]1 [cj-42, methyl ((1S)-1-(((2S)-2-(5-(4′-(2-((2S)-1-((2S)-2-((methoxycarbonyl)amino)-3-(1-methyl-1H-imidazol-4-yl)propanoyl)-2-pyrrolidinyl)-1H-imidazol-5-yl)-4-biphenylyl)-1H-imidazol-2-yl)-1-pyrrolidinyl)carbonyl)-2-methylpropyl)carbamate] | 0.001 to 0.999 | 
15 | CO[C@@H](C(=O)N1CCC[C@H]1c1ncc(-c2ccc(-c3ccc(-c4cnc([C@@H]5CCCN5C(=O)[C@@H](c5ccccc5)N5CCCCC5)[nH]4)cc3)cc2)[nH]1)c1ccccc1 [Example 107-19, 1-((1R)-2-((2S)-2-(5-(4′-(2-((2S)-1-((2R)-2-methoxy-2-phenylacetyl)-2-pyrrolidinyl)-1H-imidazol-5-yl)-4-biphenylyl)-1H-imidazol-2-yl)-1-pyrrolidinyl)-2-oxo-1-phenylethyl) piperidine] | 0.001 to 0.999 | 
16 | COC(=O)N[C@@H](Cc1cscn1)C(=O)N1CCC[C@H]1c1ncc(-c2ccc(-c3ccc(-c4cnc([C@@H]5CCCN5C(=O)[C@@H](NC(=O)OC)[C@@H](C)OC)[nH]4)cc3)cc2)[nH]1 [cj-78, methyl ((1S)-2-((2S)-2-(5-(4′-(2-((2S)-1-((2S,3R)-3-methoxy-2-((methoxycarbonyl)amino)butanoyl)-2-pyrrolidinyl)-1H-imidazol-5-yl)-4-biphenylyl)-1H-imidazol-2-yl)-1-pyrrolidinyl)-2-oxo-1-(1,3-thiazol-4-ylmethyl)ethyl)carbamate] | 0.001 to 0.999 | 
17 | COC(=O)N[C@@H](C(=O)N1CCC[C@H]1c1ncc(-c2ccc(-c3ccc(-c4cnc([C@@H]5CCCN5C(=O)Cc5ccccc5OC)[nH]4)cc3)cc2)[nH]1)c1ccccc1 [Example 84-65, methyl ((1R)-2-((2S)-2-(5-(4′-(2-((2S)-1-((2-methoxyphenyl)acetyl)-2-pyrrolidinyl)-1H-imidazol-5-yl)-4-biphenylyl)-1H-imidazol-2-yl)-1-pyrrolidinyl)-2-oxo-1-phenylethyl)carbamate] |  | EC50 range against HCV 1b (Table 2, Range): C-D
18 | COC(=O)N[C@@H](C(=O)N1CCC[C@H]1c1ncc(-c2ccc(-c3ccc(-c4cnc([C@@H]5CCCN5C(=O)Cc5ccccc5CN5CCOCC5)[nH]4)cc3)cc2)[nH]1)c1ccccc1 [Example 84-84, methyl ((1R)-2-((2S)-2-(5-(4′-(2-((2S)-1-((2-(4-morpholinylmethyl)phenyl)acetyl)-2-pyrrolidinyl)-1H-imidazol-5-yl)-4-biphenylyl)-1H-imidazol-2-yl)-1-pyrrolidinyl)-2-oxo-1-phenylethyl)carbamate] | 0.001 to 0.999 | 
19 | CN[C@@H](CC(C)C)C(=O)N1CCC[C@H]1c1nc(-c2ccc(-c3ccc(-c4cnc([C@@H]5CCCN5C(=O)[C@H](CC(C)C)NC)[nH]4)cc3)cc2)c[nH]1 [Example F32, (2S)-N,4-dimethyl-1-((2S)-2-(4-(4′-(2-((2S)-1-((2S)-4-methyl-2-(methylamino)pentanoyl)-2-pyrrolidinyl)-1H-imidazol-5-yl)-4-biphenylyl)-1H-imidazol-2-yl)-1-pyrrolidinyl)-1-oxo-2-pentanamine] | 100 to 999 | 
